Experiments:
[1] = system: Septoria Tritici Blotch (STB) (Zymoseptoria tritici); assay: glasshouse fungicidal efficacy against Septoria Tritici Blotch on winter wheat; conditions: Abbott's transformation
Procedure: The study design was a randomized complete block with 4 replicates.
The treatments were applied in accordance with Table 14, and on the day after application, artificial inoculation of the target was performed by spraying the inoculum solution at the concentration of 1×10^6 cfu/ml on the leaves. The compositions were diluted in a water volume equivalent to 400 L/ha.
Analysis of Variance (ANOVA) and a Bartlett test to assume the homogeneity of the treatment variances were performed on each assessment. Data were analyzed using ANOVA.
Evaluations were performed on incidence and severity of Septoria on leaves and transformed into percentage of disease control using the Abbott's transformation.

[2] = system: Ramularia (Ramularia collo-cygni) in barley; assay: fungicidal activity toward Ramularia in barley, protected conditions; assay type: in vivo
From the text: The following fungicides and combination of fungicides are applied to ramularia in barley. The observation was made 10 days after application. The results are shown below: The following fungicides and combination of fungicides are applied to ramularia in barley. The observation was made 24 days after application.

O=C1c2ccccc2C(=O)N1SC(Cl)(Cl)Cl [Folpet, folpet]
Disease control on severity on leaves ([1]; Folpet 500 g AI/ha): 41.6% | Observed Efficacy ([2]; Folpet 175 g a.i./ha, 10 days after application): 25.10% | Observed Efficacy ([2]; Folpet 175 g a.i./ha, 24 days after application): 21.60% | Observed Efficacy ([2]; Folpet 300 g a.i./ha, 10 days after application): 61.10% | Observed Efficacy ([2]; Folpet 300 g a.i./ha, 24 days after application): 31.00% | Observed Efficacy ([2]; Folpet 400 g a.i./ha, 10 days after application): 64.80% | Observed Efficacy ([2]; Folpet 400 g a.i./ha, 24 days after application): 49.80%

CC(O)(Cn1cncn1)c1ccc(Oc2ccc(Cl)cc2)cc1C(F)(F)F (stereo not drawn) [Mefentrifluconazole]
Disease control on severity on leaves ([1]; Mefentrifluconazole 100 g AI/ha): 49.9%

Cc1ccc(S(=O)(=O)n2cc(F)c(=N)n(C)c2=O)cc1 [ADF-16]
Observed Efficacy ([2]; ADF-16 25 g a.i./ha, 10 days after application): 45.70% | Observed Efficacy ([2]; ADF-16 25 g a.i./ha, 24 days after application): 44.50% | Observed Efficacy ([2]; ADF-16 35 g a.i./ha, 10 days after application): 55.00% | Observed Efficacy ([2]; ADF-16 35 g a.i./ha, 24 days after application): 45.60%

Source: patent publication US20250089720A1, “FUNGICIDAL MIXTURES COMPRISING COMBINATION CONTAINING PHTHALIMIDE” (Adama Makhteshim Ltd., priority 2022, published 2025)
